The values below come from PMC6407579, “New flavonoid – N,N-dibenzyl(N-methyl)amine hybrids: Multi-target-directed agents for Alzheimer´s disease endowed with neurogenic properties” (Journal of Enzyme Inhibition and Medicinal Chemistry, 2019).

For one assay, the target named is T1, recombinant hMAO-A (Homo sapiens, UniProt P21397).
T1 sequence (P21397 1-527): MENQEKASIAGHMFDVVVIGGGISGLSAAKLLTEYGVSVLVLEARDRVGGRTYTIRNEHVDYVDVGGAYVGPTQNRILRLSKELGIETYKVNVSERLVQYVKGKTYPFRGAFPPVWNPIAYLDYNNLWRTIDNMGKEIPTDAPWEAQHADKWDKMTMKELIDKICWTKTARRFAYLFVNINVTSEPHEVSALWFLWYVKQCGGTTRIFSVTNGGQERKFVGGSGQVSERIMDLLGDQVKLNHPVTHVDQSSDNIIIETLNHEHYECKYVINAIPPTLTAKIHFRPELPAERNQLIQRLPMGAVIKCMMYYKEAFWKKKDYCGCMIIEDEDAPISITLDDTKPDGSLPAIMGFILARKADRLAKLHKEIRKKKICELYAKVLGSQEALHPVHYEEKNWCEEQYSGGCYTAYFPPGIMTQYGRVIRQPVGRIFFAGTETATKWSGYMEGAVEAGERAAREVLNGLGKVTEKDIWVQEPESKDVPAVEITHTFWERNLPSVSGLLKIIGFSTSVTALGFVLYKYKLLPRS
In words: biochemical. The assay is classed as biochemical. Particulars: for IC50: mean ± SEM (n = 3), 100 µM highest concentration tested.

A further assay has as its target T2, hLOX-5 (Homo sapiens, UniProt P09917).
T2 sequence (P09917 1-674): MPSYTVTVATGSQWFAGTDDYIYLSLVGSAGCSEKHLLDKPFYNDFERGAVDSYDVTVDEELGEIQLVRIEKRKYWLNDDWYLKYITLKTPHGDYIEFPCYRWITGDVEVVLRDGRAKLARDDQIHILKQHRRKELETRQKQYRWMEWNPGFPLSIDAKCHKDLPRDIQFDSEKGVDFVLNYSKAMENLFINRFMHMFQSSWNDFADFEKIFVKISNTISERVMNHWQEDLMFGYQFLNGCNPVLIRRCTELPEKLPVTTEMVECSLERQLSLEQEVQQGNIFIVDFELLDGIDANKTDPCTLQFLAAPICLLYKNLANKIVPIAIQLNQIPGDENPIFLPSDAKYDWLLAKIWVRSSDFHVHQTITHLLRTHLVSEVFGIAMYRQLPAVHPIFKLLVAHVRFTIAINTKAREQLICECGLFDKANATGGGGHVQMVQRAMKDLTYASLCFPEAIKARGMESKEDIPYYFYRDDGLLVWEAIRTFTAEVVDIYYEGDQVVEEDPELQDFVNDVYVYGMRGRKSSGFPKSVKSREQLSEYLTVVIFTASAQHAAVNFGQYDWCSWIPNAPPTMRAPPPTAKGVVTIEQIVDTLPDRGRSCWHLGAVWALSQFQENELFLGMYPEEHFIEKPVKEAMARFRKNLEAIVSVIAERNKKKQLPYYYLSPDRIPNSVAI
In words: Inhibition of human lipoxygenase-5 (fluorescence-based, Pufahl). The class given is biochemical. To be noted: three independent experiments. On the procedure:
The fluorescence-based enzyme method developed by Pufahl et al. was followed, in 96-well microtiter plates. The assay solution consists of Tris buffer (50 mM, pH 7.5), ethylenediaminetetraacetic acid (EDTA, 2 mM), CaCl2 (2 mM), arachidonic acid (AA, 3 μM), ATP (10 μM), 2',7'-dichlorodihydrofluorescein diacetate (H2DCFDA, 10 μM), hLOX-5 (100 mU/well), bovine glutathione peroxidase (GPx, 25 mU/well) and reduced glutathione (GSH, 1 mM). Compounds to be tested were added to the test solution prior to AA and ATP, and pre-incubated for a period of 10 min at room temperature. Then, the AA and ATP substrates were added; the enzymatic reaction allowed to progress for 20 min and ended by the addition of 40 μL of acetonitrile.
A selection of new hybrids covering different structural motifs was assayed as inhibitors of hLOX-5, followed the method described by Pufahl et al.[55].

For a further assay, the target named is T3, σ1R (Cavia porcellus, UniProt Q60492).
T3 construct: the thawed membrane preparation of guinea pig brain cortex; from tissue; host or cells: guinea pig brain cortex membranes
T3 sequence (Q60492 whole entry): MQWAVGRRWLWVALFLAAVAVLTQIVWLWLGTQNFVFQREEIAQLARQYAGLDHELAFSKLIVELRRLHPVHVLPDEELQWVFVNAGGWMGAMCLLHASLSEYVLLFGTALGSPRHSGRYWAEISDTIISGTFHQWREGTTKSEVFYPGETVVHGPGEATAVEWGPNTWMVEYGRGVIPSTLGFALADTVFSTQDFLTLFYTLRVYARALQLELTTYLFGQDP
Briefly: Sigma-1 receptor binding, [3H]-(+)-pentazocine competition. Details: species or system guinea pig.

The target in assay [1] is T4, human recombinant AChE (hAChE) (Homo sapiens, UniProt P22303).
T4 construct: purchased Sigma Chemical Co
T4 sequence (P22303 32-614): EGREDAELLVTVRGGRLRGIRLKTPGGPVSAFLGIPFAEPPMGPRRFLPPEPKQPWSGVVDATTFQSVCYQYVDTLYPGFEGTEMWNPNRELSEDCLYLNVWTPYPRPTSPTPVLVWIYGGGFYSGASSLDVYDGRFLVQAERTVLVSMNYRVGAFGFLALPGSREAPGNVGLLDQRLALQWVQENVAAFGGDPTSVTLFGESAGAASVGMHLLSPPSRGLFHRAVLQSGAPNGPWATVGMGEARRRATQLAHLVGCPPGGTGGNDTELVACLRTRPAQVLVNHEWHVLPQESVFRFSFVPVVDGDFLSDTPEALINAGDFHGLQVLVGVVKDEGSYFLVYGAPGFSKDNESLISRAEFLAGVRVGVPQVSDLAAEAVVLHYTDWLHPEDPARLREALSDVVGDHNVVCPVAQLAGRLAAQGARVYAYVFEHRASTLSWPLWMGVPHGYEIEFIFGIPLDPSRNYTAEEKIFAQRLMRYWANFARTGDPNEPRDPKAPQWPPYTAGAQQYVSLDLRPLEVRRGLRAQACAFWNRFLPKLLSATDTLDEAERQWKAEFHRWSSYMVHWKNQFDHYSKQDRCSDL
In words: biochemical. On the procedure: The Ellman method was followed, using human recombinant AChE and BuChE from human serum. The assay solution consisted of 0.1 M phosphate buffer pH 8.0, 400 μM 5,5´-dithiobis(2-nitrobenzoic acid) (DTNB, Ellman’s reagent), 0.05 U/mL hAChE (Sigma Chemical Co.) or 0.024 U/mL hBuChE (Sigma Chemical Co.), and 800 μM acetylthiocholine iodide, or 500 μM butyrylthiocholine as the substrate of the enzymatic reaction, respectively. The compounds tested were added to the assay solution and preincubated with the enzyme for 5 min at 30 °C. After that period, the substrate was added.

In the next assay the target is T5, recombinant hMAO-B (Homo sapiens, UniProt P27338).
T5 sequence (P27338 1-520): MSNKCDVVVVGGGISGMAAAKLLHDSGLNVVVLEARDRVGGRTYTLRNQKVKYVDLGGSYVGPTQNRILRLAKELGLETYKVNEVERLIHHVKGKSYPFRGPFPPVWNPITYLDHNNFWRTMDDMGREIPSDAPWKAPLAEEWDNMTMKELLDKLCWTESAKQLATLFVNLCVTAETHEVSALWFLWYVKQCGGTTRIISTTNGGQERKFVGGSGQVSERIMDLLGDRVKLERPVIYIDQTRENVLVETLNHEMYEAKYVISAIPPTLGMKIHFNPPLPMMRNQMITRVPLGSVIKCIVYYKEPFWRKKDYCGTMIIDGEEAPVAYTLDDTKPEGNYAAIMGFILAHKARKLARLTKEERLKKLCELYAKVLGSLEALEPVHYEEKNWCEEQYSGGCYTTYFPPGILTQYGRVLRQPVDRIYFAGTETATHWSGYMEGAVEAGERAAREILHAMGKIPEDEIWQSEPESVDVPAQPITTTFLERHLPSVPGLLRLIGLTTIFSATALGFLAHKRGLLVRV
Briefly: biochemical. The class given is biochemical. Particulars: mean ± SEM (n = 3); 100 µM highest concentration tested.

The mark [2] stands for this setting: mean ± SEM, read-out: hLOX-5 IC50.
Setting [3] is: mean ± SEM (n = 3), read-out: hAChE IC50.

“And” between values parts separate entries of the source, which are not always exact repeats. Identical values can stand only once. Like-named read-outs stand apart in the source and are kept apart here.

Consider `COc1cc2oc(C(=O)Nc3cccc(CN(C)Cc4ccccc4)c3)cc(=O)c2cc1OC` [Compound 6, N-(3-((Benzyl(methyl)amino)methyl)phenyl)-6,7-dimethoxy-4-oxo-4H-chromene-2-carboxamide], for which the IC50 at recombinant hMAO-A was above 100 µM; against hLOX-5 (hLOX-5 IC50, mean ± SEM), 30 µM and 30.4 µM; on σ1R, 530 nM and 500 nM; in assay [1] (hAChE IC50, mean ± SEM (n = 3)), 4500 ± 800 nM; on recombinant hMAO-B, above 100 µM. Besides, the “Selectivity vs. σ1R (Kiσ2R/Kiσ1R)” value on σ1R is 2.5. Also, the inhibitory constant (Ki) at σ1R (guinea pig brain cortex membranes, [3H]-(+)-pentazocine, mean ± SEM, read-out: Ki σ1R) turned out to be 530 ± 70 nM.
Take `CN(Cc1ccccc1)Cc1ccc(NC(=O)c2cc(=O)c3cc(O)ccc3o2)cc1` [Compound 2, N-(4-((Benzyl(methyl)amino)methyl)phenyl)-6-hydroxy-4-oxo-4H-chromene-2-carboxamide]: the concentration for half-maximal inhibition (IC50) is 7 ± 0.8 µM at recombinant hMAO-A, above 100 µM at hLOX-5 (setting [2]), 1300 ± 300 nM in assay [1] (setting [3]) and 9.7 ± 1.6 µM at recombinant hMAO-B. Also, the “hLOX-5 IC50” value at hLOX-5 (mean ± SEM) was “inactive”. Moreover, the affinity on σ1R corresponds to a Ki of 380 ± 50 nM. At σ1R, the “Selectivity vs. σ1R (Kiσ2R/Kiσ1R)” value is reported as 4.2.
For the molecule `COc1cc2oc(C(=O)Nc3ccc(CN(C)Cc4ccccc4)cc3)cc(=O)c2cc1OC` [Compound 5, N-(4-((Benzyl(methyl)amino)methyl)phenyl)-6,7-dimethoxy-4-oxo-4H-chromene-2-carboxamide], the IC50 on recombinant hMAO-A is 9 ± 0.1 µM; at hLOX-5 (setting [2]) it was 72.4 ± 2.2 µM; in assay [1] (hAChE IC50, mean ± SEM (n = 3)), 990 nM and 1000 nM; on recombinant hMAO-B, 8.1 ± 0.4 µM.
On to `COc1ccc2oc(C(=O)Nc3ccc(CN(C)Cc4ccccc4)cc3)cc(=O)c2c1` [Compound 1, N-(4-((Benzyl(methyl)amino)methyl)phenyl)-6-methoxy-4-oxo-4H-chromene-2-carboxamide], for which the “preference for hMAO-A compared to hMAO-B” value at recombinant hMAO-A is recorded as “at least 4.4 times”. For the same molecule, the IC50 is 1.6 ± 0.4 µM on recombinant hMAO-A, 12.4 ± 0.5 µM on hLOX-5 (setting [2]), 1500 ± 200 nM in assay [1] (setting [3]) and 59.8 ± 3.7 µM on recombinant hMAO-B. In addition, the Ki at σ1R turned out to be 480 ± 50 nM. Also, the “Selectivity vs. σ1R (Kiσ2R/Kiσ1R)” value on σ1R was 3.7.
